Experimental data published in ChEMBL document CHEMBL3045479, “Synthesis and anti-cancer activity of some novel C-17 analogs of ursolic and oleanolic acids” (2013).
Counter-ions that a name gives are not always drawn.

How the values were obtained:
Format in all cases: functional
[1] = test system: COLO 205; assay: Growth inhibition of Homo sapiens (human) COLO205 cells at 10 uM after 48 hr by SRB assay; conditions: COLO 205, 48 h, read-out: GI
[2] = test system: THP-1; assay: Growth inhibition of Homo sapiens (human) THP1 cells at 10 uM after 48 hr by SRB assay; conditions: THP-1, 48 h, read-out: GI
[3] = test system: A549; assay: Growth inhibition of Homo sapiens (human) A549 cells at 10 uM after 48 hr by SRB assay; conditions: A549, 48 h, read-out: GI
[4] = test system: PC-3; assay: Growth inhibition of Homo sapiens (human) PC3 cells at 10 uM after 48 hr by SRB assay; conditions: PC-3, 48 h, read-out: GI
[5] = test system: SiHa; assay: Growth inhibition of Homo sapiens (human) SiHa cells at 10 uM after 48 hr by SRB assay; conditions: read-out: GI
[6] = test system: IMR-32; assay: Growth inhibition of Homo sapiens (human) IMR32 cells at 10 uM after 48 hr by SRB assay; conditions: IMR-32, 48 h, read-out: GI
[7] = test system: SW-620; assay: Growth inhibition of Homo sapiens (human) SW620 cells at 10 uM after 48 hr by SRB assay; conditions: SW-620, 48 h, read-out: GI
[8] = test system: HeLa; assay: Growth inhibition of Homo sapiens (human) HeLa cells at 10 uM after 48 hr by SRB assay; conditions: read-out: GI

C[C@H]1[C@H](C)CC[C@]2(C(=O)OCCBr)CC[C@]3(C)C(=CC[C@@H]4[C@@]5(C)CC[C@H](O)C(C)(C)[C@@H]5CC[C@]43C)[C@H]12
inhibition of growth at 10 µM [1]: 12% | inhibition of growth at 10 µM [2]: 54% | inhibition of growth at 10 µM [3]: 28% | inhibition of growth at 10 µM [4]: 23%

CC(C)=CCOC(=O)[C@]12CC[C@@H](C)[C@H](C)[C@H]1C1=CC[C@@H]3[C@@]4(C)CC[C@H](O)C(C)(C)[C@@H]4CC[C@@]3(C)[C@]1(C)CC2
inhibition of growth at 10 µM [1]: 0% | inhibition of growth at 10 µM [5]: 21% | inhibition of growth at 10 µM [6]: 19% | inhibition of growth at 10 µM [3]: 12% | inhibition of growth at 10 µM [7]: 2% | inhibition of growth at 10 µM [8]: 24%

C=CCOC(=O)[C@]12CCC(C)(C)C[C@H]1C1=CC[C@@H]3[C@@]4(C)CC[C@H](O)C(C)(C)[C@@H]4CC[C@@]3(C)[C@]1(C)CC2 [3BETA-HYDROXY-OLEAN-12-EN-28-ALLYLATE]
inhibition of growth at 10 µM [1]: 0% | inhibition of growth at 10 µM [5]: 15% | inhibition of growth at 10 µM [6]: 16% | inhibition of growth at 10 µM [3]: 31% | inhibition of growth at 10 µM [7]: 1% | inhibition of growth at 10 µM [8]: 0%

COC(=O)COC(=O)[C@]12CCC(C)(C)C[C@H]1C1=CC[C@@H]3[C@@]4(C)CC[C@H](O)C(C)(C)[C@@H]4CC[C@@]3(C)[C@]1(C)CC2 [3BETA-HYDROXY-OLEAN-12-EN-28-METHYL ACETOACETATE]
inhibition of growth at 10 µM [1]: 2% | inhibition of growth at 10 µM [5]: 19% | inhibition of growth at 10 µM [6]: 18% | inhibition of growth at 10 µM [3]: 25% | inhibition of growth at 10 µM [7]: 4% | inhibition of growth at 10 µM [8]: 13%

CC(C)=CCOC(=O)[C@]12CCC(C)(C)C[C@H]1C1=CC[C@@H]3[C@@]4(C)CC[C@H](O)C(C)(C)[C@@H]4CC[C@@]3(C)[C@]1(C)CC2 [3BETA-HYDROXY-OLEAN-12-EN-28-PRENYLATE]
inhibition of growth at 10 µM [1]: 0% | inhibition of growth at 10 µM [5]: 36% | inhibition of growth at 10 µM [6]: 16% | inhibition of growth at 10 µM [3]: 25% | inhibition of growth at 10 µM [7]: 13% | inhibition of growth at 10 µM [8]: 5%

C#CCOC(=O)[C@]12CCC(C)(C)C[C@H]1C1=CC[C@@H]3[C@@]4(C)CC[C@H](O)C(C)(C)[C@@H]4CC[C@@]3(C)[C@]1(C)CC2 [3BETA-HYDROXY-OLEN-12-EN-28-PROPARGYLATE]
inhibition of growth at 10 µM [1]: 15% | inhibition of growth at 10 µM [5]: 30% | inhibition of growth at 10 µM [6]: 16% | inhibition of growth at 10 µM [3]: 20% | inhibition of growth at 10 µM [7]: 2% | inhibition of growth at 10 µM [8]: 27%

C=CCOC(=O)[C@]12CC[C@@H](C)[C@H](C)[C@H]1C1=CC[C@@H]3[C@@]4(C)CC[C@H](O)C(C)(C)[C@@H]4CC[C@@]3(C)[C@]1(C)CC2 [3BETA-HYDROXY-URS-12-EN-28-ALLYLATE]
inhibition of growth at 10 µM [1]: 0% | inhibition of growth at 10 µM [5]: 25% | inhibition of growth at 10 µM [6]: 20% | inhibition of growth at 10 µM [3]: 19% | inhibition of growth at 10 µM [7]: 0% | inhibition of growth at 10 µM [8]: 0%

COC(=O)COC(=O)[C@]12CC[C@@H](C)[C@H](C)[C@H]1C1=CC[C@@H]3[C@@]4(C)CC[C@H](O)C(C)(C)[C@@H]4CC[C@@]3(C)[C@]1(C)CC2 [3BETA-HYDROXY-URS-12-EN-28-METHYL ACETOACETATE]
inhibition of growth at 10 µM [1]: 0% | inhibition of growth at 10 µM [5]: 24% | inhibition of growth at 10 µM [6]: 18% | inhibition of growth at 10 µM [3]: 23% | inhibition of growth at 10 µM [7]: 0% | inhibition of growth at 10 µM [8]: 11%

C#CCOC(=O)[C@]12CC[C@@H](C)[C@H](C)[C@H]1C1=CC[C@@H]3[C@@]4(C)CC[C@H](O)C(C)(C)[C@@H]4CC[C@@]3(C)[C@]1(C)CC2 [3BETA-HYDROXY-URS-12-EN-28-PROPARGYLATE]
inhibition of growth at 10 µM [1]: 0% | inhibition of growth at 10 µM [5]: 4% | inhibition of growth at 10 µM [6]: 11% | inhibition of growth at 10 µM [3]: 24% | inhibition of growth at 10 µM [7]: 0% | inhibition of growth at 10 µM [8]: 0%

C[C@H]1[C@H](C)CC[C@]2(C(=O)OCCCCBr)CC[C@]3(C)C(=CC[C@@H]4[C@@]5(C)CC[C@H](O)C(C)(C)[C@@H]5CC[C@]43C)[C@H]12 [BROMOBUTYL-3BETA-HYDROXY-URS-12-EN-28-OATE]
inhibition of growth at 10 µM [1]: 10% | inhibition of growth at 10 µM [2]: 7% | inhibition of growth at 10 µM [3]: 2% | inhibition of growth at 10 µM [4]: 23%

C[C@H]1[C@H](C)CC[C@]2(C(=O)OCCCCCCCCCCCCBr)CC[C@]3(C)C(=CC[C@@H]4[C@@]5(C)CC[C@H](O)C(C)(C)[C@@H]5CC[C@]43C)[C@H]12 [BROMODODECYL-3BETA-HYDROXY-URS-12-EN-28-OATE]
inhibition of growth at 10 µM [1]: 0% | inhibition of growth at 10 µM [2]: 0% | inhibition of growth at 10 µM [3]: 0% | inhibition of growth at 10 µM [4]: 0%

C[C@H]1[C@H](C)CC[C@]2(C(=O)OCCCCCCBr)CC[C@]3(C)C(=CC[C@@H]4[C@@]5(C)CC[C@H](O)C(C)(C)[C@@H]5CC[C@]43C)[C@H]12 [BROMOHEXYL-3BETA-HYDROXY-URS-12-EN-28-OATE]
inhibition of growth at 10 µM [1]: 0% | inhibition of growth at 10 µM [2]: 3% | inhibition of growth at 10 µM [3]: 0% | inhibition of growth at 10 µM [4]: 0%

C[C@H]1[C@H](C)CC[C@]2(C(=O)OCBr)CC[C@]3(C)C(=CC[C@@H]4[C@@]5(C)CC[C@H](O)C(C)(C)[C@@H]5CC[C@]43C)[C@H]12 [BROMOMETHYL-3BETA-HYDROXY-URS-12-EN-28-OATE]
inhibition of growth at 10 µM [1]: 13% | inhibition of growth at 10 µM [2]: 49% | inhibition of growth at 10 µM [3]: 7% | inhibition of growth at 10 µM [4]: 6%

C[C@H]1[C@H](C)CC[C@]2(C(=O)OCCCCCCCCCBr)CC[C@]3(C)C(=CC[C@@H]4[C@@]5(C)CC[C@H](O)C(C)(C)[C@@H]5CC[C@]43C)[C@H]12 [BROMONONYL-3BETA-HYDROXY-URS-12-EN-28-OATE]
inhibition of growth at 10 µM [1]: 3% | inhibition of growth at 10 µM [2]: 0% | inhibition of growth at 10 µM [3]: 0% | inhibition of growth at 10 µM [4]: 9%

C[C@H]1[C@H](C)CC[C@]2(C(=O)OCCCCCCCCBr)CC[C@]3(C)C(=CC[C@@H]4[C@@]5(C)CC[C@H](O)C(C)(C)[C@@H]5CC[C@]43C)[C@H]12 [BROMOOCTYL-3BETA-HYDROXY-URS-12-EN-28-OATE]
inhibition of growth at 10 µM [1]: 0% | inhibition of growth at 10 µM [2]: 4% | inhibition of growth at 10 µM [3]: 0% | inhibition of growth at 10 µM [4]: 1%

C[C@H]1[C@H](C)CC[C@]2(C(=O)OCCCCCBr)CC[C@]3(C)C(=CC[C@@H]4[C@@]5(C)CC[C@H](O)C(C)(C)[C@@H]5CC[C@]43C)[C@H]12 [BROMOPENTYL-3BETA-HYDROXY-URS-12-EN-28-OATE]
inhibition of growth at 10 µM [1]: 1% | inhibition of growth at 10 µM [2]: 10% | inhibition of growth at 10 µM [3]: 7% | inhibition of growth at 10 µM [4]: 6%

C[C@H]1[C@H](C)CC[C@]2(C(=O)OCCCBr)CC[C@]3(C)C(=CC[C@@H]4[C@@]5(C)CC[C@H](O)C(C)(C)[C@@H]5CC[C@]43C)[C@H]12 [BROMOPROPYL-3BETA-HYDROXY-URS-12-EN-28-OATE]
inhibition of growth at 10 µM [1]: 10% | inhibition of growth at 10 µM [2]: 68% | inhibition of growth at 10 µM [3]: 9% | inhibition of growth at 10 µM [4]: 0%

COc1cccc2c1C(=O)c1c(O)c3c(c(O)c1C2=O)C[C@@](O)(C(=O)CO)C[C@@H]3O[C@H]1C[C@H](N)[C@H](O)[C@H](C)O1 [DOXORUBICIN HYDROCHLORIDE]
inhibition of growth at 10 µM [1]: 89% | inhibition of growth at 10 µM [6]: 82% | inhibition of growth at 10 µM [3]: 50% | inhibition of growth at 10 µM [7]: 38% | inhibition of growth at 10 µM [8]: 58%

O=c1[nH]cc(F)c(=O)[nH]1 [FLUOROURACIL]
inhibition of growth at 10 µM [1]: 47% | inhibition of growth at 10 µM [5]: 38% | inhibition of growth at 10 µM [6]: 29% | inhibition of growth at 10 µM [2]: 69% | inhibition of growth at 10 µM [3]: 30% | inhibition of growth at 10 µM [7]: 42% | inhibition of growth at 10 µM [8]: 36%

COC(=O)[C@]12CCC(C)(C)C[C@H]1C1=CC[C@@H]3[C@@]4(C)CC[C@H](O)C(C)(C)[C@@H]4CC[C@@]3(C)[C@]1(C)CC2 [METHYL OLEANOLATE]
inhibition of growth at 10 µM [1]: 0% | inhibition of growth at 10 µM [5]: 21% | inhibition of growth at 10 µM [6]: 55% | inhibition of growth at 10 µM [3]: 48% | inhibition of growth at 10 µM [7]: 8% | inhibition of growth at 10 µM [8]: 18%

COC(=O)[C@]12CC[C@@H](C)[C@H](C)[C@H]1C1=CC[C@@H]3[C@@]4(C)CC[C@H](O)C(C)(C)[C@@H]4CC[C@@]3(C)[C@]1(C)CC2 [METHYL URSOLATE]
inhibition of growth at 10 µM [1]: 0% | inhibition of growth at 10 µM [5]: 21% | inhibition of growth at 10 µM [6]: 11% | inhibition of growth at 10 µM [3]: 20% | inhibition of growth at 10 µM [7]: 0% | inhibition of growth at 10 µM [8]: 2%

CO[C@@]12[C@H](COC(N)=O)C3=C(C(=O)C(C)=C(N)C3=O)N1C[C@@H]1N[C@@H]12 [MITOMYCIN]
inhibition of growth at 10 µM [4]: 61%

CC1(C)CC[C@]2(C(=O)O)CC[C@]3(C)C(=CC[C@@H]4[C@@]5(C)CC[C@H](O)C(C)(C)[C@@H]5CC[C@]43C)[C@@H]2C1 [OLEANOLIC_ACID]
inhibition of growth at 10 µM [1]: 33% | inhibition of growth at 10 µM [5]: 3% | inhibition of growth at 10 µM [6]: 22% | inhibition of growth at 10 µM [3]: 24% | inhibition of growth at 10 µM [7]: 24% | inhibition of growth at 10 µM [8]: 26%

CC(=O)O[C@H]1C(=O)[C@@]2(C)[C@H]([C@H](OC(=O)c3ccccc3)[C@]3(O)C[C@H](OC(=O)[C@H](O)[C@@H](NC(=O)c4ccccc4)c4ccccc4)C(C)=C1C3(C)C)[C@]1(OC(C)=O)CO[C@@H]1C[C@@H]2O [PACLITAXEL]
inhibition of growth at 10 µM [1]: 67% | inhibition of growth at 10 µM [6]: 30% | inhibition of growth at 10 µM [3]: 44% | inhibition of growth at 10 µM [7]: 36% | inhibition of growth at 10 µM [8]: 45%
